Assay [1] deals with Leishmania donovani GE1F8R strain. The experiment in a line: In vivo efficacy assay against SAG-resistant strain. The conditions noted are these: BALB/c mice, i.v. 8 weeks after inoculation, 30 days post treatment. The method, then: Inbred mice of 4-6 weeks old, weigh […] and of any sex, strain BALB/c were infected with Leishmania donovani GE1F8R strain by intravenous inoculation with 2.5×10^7 amastigotes from the spleen of an infected hamster. Eight weeks after inoculation, the mice were divided into groups of 4-5 animals and dosed intravenously into the tail vein with optimal dose of free SAG, equivalent amount of free SAG, empty PC-SA liposome or SAG entrapped PC-SA liposome ([…]). Mice were sacrificed on 30 days post treatment. Livers and spleens were excised and weighed. Bone marrow was also isolated and smeared on glass slides. Impressions smears were prepared from the cut surface of the liver and spleen. The impression smears were stained with Giemsa, and number of amastigotes counted microscopically per 500 cell nuclei. The results of 30 days post treatment are expressed as Leishman Donovan units and percentage suppression in parasitemia with respect untreated infected control were calculated.

For assay [2], the system named is Leishmania donovani, AG83. The experiment in a line: In vivo activity screening in chronic infection model (12 weeks post infection). The conditions noted are these: BALB/c mice, single i.v. dose 12 weeks post infection, 30 days post treatment; SAG 0.015-0.02 g/kg body wt. The source says:
Inbred mice of 4-6 weeks old, weigh 20 g and of any sex, strain BALB/c were infected with Leishmania donovani, AG83, by intravenous inoculation with 2.5×10^7 amastigotes from the spleen of an infected hamster. Twelve weeks after inoculation, the mice were divided into groups of 4-5 animals and dosed intravenously into the tail vein with empty PC-SA liposome (1-1.1 g/kg body wt.), free SAG (0.015-0.020 g/kg body wt.) or equivalent amount of SAG entrapped in PC-SA liposome (0.015 g/kg of SAG in 1-1.1 g/kg body wt of liposome). Mice were sacrificed on 30 days post treatment. Livers and spleens were excised and weighed. Impressions smears were prepared from the cut surface of the liver and spleen. The impression smears were stained with Giemsa, and number of amastigotes counted microscopically per 500 cell nuclei. The results of 30 days post treatment are shown below and expressed percentage suppression in parasitemia with respect to untreated infected control calculated.

The test system of assay [3] is Leishmania donovani, AG83. The experiment in a line: In vivo activity screening in established infection model with graded doses to calculate 50% effective dose. The note with it: for % Inhibition of liver parasite level / % Inhibition of spleen parasite level: BALB/c mice, i.v., 30 days post treatment. The text has this:
Inbred mice of 4-6 weeks old, weigh 20 g and of any sex, strain BALB/c were infected with Leishmania donovani, AG83, by intravenous inoculation with 2.5×10^7 amastigotes from the spleen of an infected hamster. Eight weeks after inoculation, the mice were divided into groups of 4-5 animals and dosed intravenously into the tail vein with graded dose of free SAG, empty PC-SA liposome, or SAG entrapped PC-SA liposome. Mice were sacrificed on 30 days post treatment. The livers and spleens were excised and weighed. Impressions smears were prepared from the cut surface of the liver and spleen. The impression smears were stained with Giemsa, and number of amastigotes counted microscopically per 500 cell nuclei. The results of 30 days post treatment are expressed as percentage suppression in parasite burden in compared to infected but untreated mice. Thereby, the dosage necessary to reduce the parasite count to 50% of the untreated group could be calculated.

In assay [4] the test system is Leishmania donovani, AG83. The experiment in a line: In vivo efficacy in established infection model (8 weeks post infection). The conditions noted are these: BALB/c mice, single i.v. dose 8 weeks post infection, 30 days post treatment, SAG 0.3-0.4 g/kg body wt. The source says: Inbred mice of 4-6 weeks old, weigh 20 g and of any sex, strain BALB/c were infected with Leishmania donovani, AG83, by intravenous inoculation with 2.5×10^7 amastigotes from the spleen of an infected hamster. Eight weeks after inoculation, the mice were divided into groups of 4-5 animals and administered at a single dose intravenously into the tail vein with optimal dose of free SAG (0.3 g/kg wt.) or empty PC-SA liposome (1.1 g/kg wt.) or SAG entrapped PC-SA liposome (0.015 g/kg of SAG into 1.1 g/kg body wt.) or SAG entrapped in PC-Chol liposome (0.015 g/kg of SAG into 1.25 g/kg wt. of lipid). Mice were sacrificed on 30 days post treatment. Livers and spleens were excised and weighed. Bone marrow was also isolated from femur bone and smeared on glass slides. Impressions smears were prepared from the cut surface of the liver and spleen. The impression smears were stained with Giemsa, and number of amastigotes counted microscopically per 500 cell nuclei. The results of 30 days post treatment are shown below and expressed as percentage suppression in parasitemia with respect to untreated infected.

Setting [5] is: liver parasite level, dose expressed as SAG.
The mark [6] stands for this setting: spleen parasite level, dose expressed as SAG.

For `C[C@@H]1[C@H](O)[C@@H](C)/C=C/C=C/C=C/C=C/C=C/C=C/C=C/[C@H](O[C@@H]2O[C@H](C)[C@@H](O)[C@H](N)[C@@H]2O)C[C@@H]2O[C@](O)(C[C@@H](O)C[C@@H](O)[C@H](O)CC[C@@H](O)C[C@@H](O)CC(=O)O[C@H]1C)C[C@H](O)[C@H]2C(=O)O` [Amphotericin B], the “% Inhibition of parasite level” value in assay [1] (bone marrow, Amphotericin B 0.002-0.0025 g/kg body wt.) came out at 85.091%; in assay [1] (liver, Amphotericin B 0.002-0.0025 g/kg body wt.), 87.778%; in assay [1] (spleen, Amphotericin B 0.002-0.0025 g/kg body wt.), 85.091%.

Take sodium antimony gluconate [SAG]: the “% Inhibition of liver parasite level” value is 50.88% in assay [2]; 56.55% in assay [3] (SAG 0.005 g/kg body wt.); 56.7% in assay [3] (SAG 0.010 g/kg body wt.); 61.29% in assay [3] (SAG 0.050 g/kg body wt.); 88.03% in assay [3] (SAG 0.10 g/kg body wt.); 92.73% in assay [3] (SAG 0.30 g/kg body wt.). Further, the “% Inhibition of liver parasite level” value is recorded as 96.6% in assay [3] (SAG 0.50 g/kg body wt.) and 82.322% in assay [4]. For the same compound, the “% Inhibition of spleen parasite level” value in assay [2] was 26.69%; in assay [3] (SAG 0.005 g/kg body wt.), 41.27%; in assay [3] (SAG 0.010 g/kg body wt.), 50.95%; in assay [3] (SAG 0.050 g/kg body wt.), 55.67%; in assay [3] (SAG 0.10 g/kg body wt.), 65.79%; in assay [3] (SAG 0.30 g/kg body wt.), 70.49%. The entries for the “% Inhibition of spleen parasite level” value in assay [3] (SAG 0.50 g/kg body wt.) and in assay [4] were 80.33% and 70%, respectively. The “% Inhibition of parasite level” value stood at 0% in assay [1] (bone marrow, SAG 0.015-0.02 g/kg body wt.); 16.836% in assay [1] (bone marrow, SAG 0.3 g/kg body wt.); 0% in assay [1] (liver, SAG 0.015-0.02 g/kg body wt.); 5.309% in assay [1] (liver, SAG 0.3 g/kg body wt.); 0% in assay [1] (spleen, SAG 0.015-0.02 g/kg body wt.); 16.836% in assay [1] (spleen, SAG 0.3 g/kg body wt.). In assay [4] (bone marrow), the “% Inhibition of parasite level” value was 44.029%. For the same compound, in assay [3] (setting [5]), the “ED50 (+S.E) Liver, SAG” value is 0.012 + 0.004 g/kg body wt. Further, in assay [3] (setting [5]), the “ED90 (+S.E) Liver, SAG” value is 0.347 + 0.005 g/kg body wt. Further, the “ED50 (+S.E) Spleen, SAG” value in assay [3] (setting [6]) is reported as 0.145 + 0.020 g/kg body wt. The “ED90 (+S.E) Spleen, SAG” value in assay [3] (setting [6]) is given as 0.493 + 0.028 g/kg body wt.
